Read-outs that look alike come from different tables or passages of the source.
How the values were obtained:
[1] = tested on: human glioma G422 (xenograph in brain); experiment: Tumor xenographed in mice brain, survival; format: in vivo
Procedure: Mice model with tumor xenographed in mice brain: Glioma cell line G-422 or SHG44 (log phase) were diluted to 2×10^7/ml in cell culture hood (no bacteria environment). Each mouse was injected with 0.05 ml of tumor cell in its brain. […] The survival time of these mice was recorded in the next 30 days. The life extension was calculated using the following formula: Life Extension Rate=[( […])/Average survival days of control group[×100 Results: […]

[2] = tested on: human prostate cancer PC-3M
[3] = Chronic toxicity study, 28 days i.v.; format: in vivo; conditions: Beagle dogs
[4] = tested on: human glioma SHG-44G (xenograph under skin); experiment: Xenograph under skin, injection directly into tumor; format: in vivo, nude mice; conditions: for Tumor Weight X ± SD: in g (unit assumed)
Excerpt: The mice were killed after 3 weeks.
Nude mice grew on the cengliu rack.

human glioma cells = experiment: MTT assay, elemene analogs; format: cell-based
Procedure: (§1) The MTT assay is a commonly used method in evaluation of cell survival, based on the ability of viable cells to convert MTT, a soluble tetrazolium salt [3-(4,5-dimethylthuazole-2-yl)-2,5 diphenyl tetrazolium bromide], into an insoluble formazan precipitate, which is quantitated by spectrophotometry following solubilization in dimethyl sulfoxide (DMSO).
(§2) The cells were then solubilized in 125 μl of DMSO and absorbance readings were taken using a 96-well Opsys MRI Microplate Reader (ThermoLabsystems; Chantilly, Va.). The amount of MTT dye reduction was calculated based on the difference between absorbance at 570 nm and at 630 nm. Cell viability in treated cells was expressed as the amount of dye reduction relative to that of untreated control cells. The wells which contained only medium and 10 μl of MTT were used as blanks for the plate reader. Three sets of experiments were performed in 8-12 wells for each treatment.

[5] = tested on: Colon Cancer Cells HCT-116; experiment: MTS cell viability assay; format: cell-based, human; conditions: combinations with Elemene 160 μg/ml, n = 8
[6] = tested on: Non-small-cell lung cancer (NSCLC) cell lines; experiment: Mechanism in NSCLC cells
A-172 brain tumor = experiment: MTT survival assay; format: cell-based, human; conditions: A172, 72 h
Procedure: as §1, §2
The cells were then solubilized in 125 μl of DMSO and absorbance readings were taken using a 96-well Opsys MRI Microplate Reader (ThermoLabsystems; Chantilly, Va.). The amount of MTT dye reduction was calculated based on the difference between absorbance at 570 nm and at 630 nm. Cell viability in treated cells was expressed as the amount of dye reduction relative to that of untreated control cells. The wells which contained only medium and 10 μI of MTT were used as blanks for the plate reader. Three sets of experiments were performed in 8-12 wells for each treatment.

(−)-Beta-elemene
Average Life Span (day) X± SD ([1]; 7.5 mg/kg/time iv × 10 qd): 12.3 ± 3.4 days | Average Life Span (day) X± SD ([1]; 15 mg/kg/time iv × 10 qd): 13.1 ± 2.7 days | Average Life Span (day) X± SD ([1]; 30 mg/kg/time iv × 10 qd): 14.1 ± 2.3 days | Average Life Span (day) X± SD ([1]; 60 mg/kg/time iv × 10 qd): 14.9 ± 2.1 days | Inhibition Rate % ([2]; 12.5 mg/kg/time iv × 10 bid): 27.95% | Tumor Weight (g) X ± SD ([2]; 12.5 mg/kg/time iv × 10 bid): 1.16 ± 0.12 g | Inhibition Rate % ([2]; 25 mg/kg/time iv × 10 bid): 34.78% | Tumor Weight (g) X ± SD ([2]; 25 mg/kg/time iv × 10 bid): 1.05 ± 0.07 g | Inhibition Rate % ([2]; 50 mg/kg/time iv × 10 bid): 46.58% | Tumor Weight (g) X ± SD ([2]; 50 mg/kg/time iv × 10 bid): 0.86 ± 0.12 g | Inhibition Rate % (human colon cancer HCT-8; 12.5 mg/kg/time iv × 10 bid): 38.32% | Tumor Weight (g) X ± SD (human colon cancer HCT-8; 12.5 mg/kg/time iv × 10 bid): 0.928 ± 0.07 g | Inhibition Rate % (human colon cancer HCT-8; 12.5 mg/kg/time iv × 10 bid, listed as β-Elemene): 35.10% | Inhibition Rate % (human colon cancer HCT-8; 25 mg/kg/time iv × 10 bid): 49.49% | Tumor Weight (g) X ± SD (human colon cancer HCT-8; 25 mg/kg/time iv × 10 bid): 0.772 ± 0.05 g | Inhibition Rate % (human colon cancer HCT-8; 25 mg/kg/time iv × 10 bid, listed as β-Elemene): 46.01% | Inhibition Rate % (human colon cancer HCT-8; 50 mg/kg/time iv × 10 bid): 57.15% | Tumor Weight (g) X ± SD (human colon cancer HCT-8; 50 mg/kg/time iv × 10 bid): 0.655 ± 0.08 g | Inhibition Rate % (human colon cancer HCT-8; 50 mg/kg/time iv × 10 bid, listed as β-Elemene): 54.20% | side effects, high dose group ([3]; 75 mg/kg/d i.v., 28 days): nausea, vomiting, appetite loss, weight loss, saliva dripping and other side effects | pathology changes, low and medium dose groups ([3]; 15 and 30 mg/kg/d i.v., 28 days): No significant pathology changes related to drug | non-toxic dose ([3]; i.v., 28 days consecutively): 15 mg/kg | Inhibition Rate % ([4]; 15 mg/kg it × 10 qd): 37.83% | Tumor Weight X ± SD ([4]; 15 mg/kg it × 10 qd): 1.15 ± 0.33 | Inhibition Rate % ([4]; 30 mg/kg it × 10 qd): 51.35% | Tumor Weight X ± SD ([4]; 30 mg/kg it × 10 qd): 0.90 ± 0.17 | Inhibition Rate % ([4]; 60 mg/kg it × 10 qd): 63.24% | Tumor Weight X ± SD ([4]; 60 mg/kg it × 10 qd): 0.68 ± 0.19 | IC50 in human glioma cells (human glioma cells; 24 hr): 95.52 µg/mL | IC50 in human glioma cells (human glioma cells; 48 hr): 88.48 µg/mL | IC50 in human glioma cells (human glioma cells; 72 hr): 93.34 µg/mL | IC50 ([5]; HCT-116, 4 hr/24 hr × 2): 203 ± 23.1 µg/mL | IC50 ([5]; HCT-116, 4 hr/24 hr × 3): 165 ± 22.0 µg/mL | IC50 ([5]; HCT-116, 4 hr/24 hr): 230 ± 25.2 µg/mL | IC50 ([5]; HCT-116, 4 hr): 363 ± 45.9 µg/mL | IC50 ([5]; HCT-116, 8 hr): 206 ± 24.2 µg/mL | IC50 ([5]; HCT-116, 12 hr): 201 ± 12.0 µg/mL | IC50 ([5]; HCT-116, 24 hr): 184 ± 26.1 µg/mL | IC50 ([5]; HCT-116, 48 hr): 163 ± 21.8 µg/mL | IC50 ([5]; HCT-116, 72 hr): 157 ± 22.0 µg/mL | apoptosis [6]: triggered apoptosis | cell cycle effect [6]: arrest NSCLC cells at cell cycle G2-M phase | IC50 (A-172 brain tumor): 80 µg/mL
